Data as given in patent US7064139B2, “Method for treating retroviral infections” (Uniroyal Chemical Company, Inc., priority 2001, dated 2006).
Values after ≈ are worked out from the molar mass of the structure shown.

Assays:
[1] = test system: HIV-1 (IIIB); assay: microbe, parasite or virus in culture; type: cell-based; conditions: for EC50 (ug/ml) HIV-1 / EC50: CEM cells, syncytium formation, day four post infection; for HIV-1 % Protection: protection of CEM cells against virus-induced cytopathicity at the concentration in the previous column; for EC50: Human immunodeficiency virus 1, IIIB, CCRF-CEM, read-out: EC50 (ug/ml) HIV-1
Text: (§1) The cell type used to determine activity of the compounds of the invention herein, i.e., the test compounds, against HIV was human T-lymphoblast (CEM) cells obtained from the American Tissue Cell Culture Collection (Rockville, Md.). HIV-1 (IIIB) was originally obtained from the culture of persistently HIV-1 infected H9 cells and was provided by R. C. Gallo and M. Popovic (National Cancer Institute, National Institutes of Health, Bethesda, Md.). HIV-2 (ROD) was originally obtained from L. M. Montagnier (Pasteur Institute, Paris, France).
(§2) To determine the antiviral activity of the test compounds, CEM cells were suspended at a cell density of approximately 300,000 cells per ml of culture medium and infected with approximately 100 CCID50 (100 CCID50 being the 50% cell culture infective dose) of HIV-1 (IIIB) or HIV-2 (ROD)). Then 100 μl of the infected cell suspensions was added to 200 μl micro titer plate wells containing 100 μl of appropriate serial (5-fold) dilutions of the test compounds. The inhibitory effect of the test compounds on HIV-1 or HIV-2 syncytium formation in CEM cells was examined microscopically on day four post infection.
(§3) In these cases, the percent protection of the cells against virus-induced cytopathicity by the test compounds at the indicated compound concentration in the previous column is given.

[2] = test system: HIV-2 (ROD); assay: Inhibition of HIV-2 syncytium formation in CEM cells; type: cell-based; conditions: for EC50 (ug/ml) HIV-2 / EC50: CEM cells, syncytium formation, day four post infection; for HIV-2 % Protection: protection of CEM cells against virus-induced cytopathicity at the concentration in the previous column; for EC50: Human immunodeficiency virus 2, CCRF-CEM, read-out: EC50 (ug/ml) HIV-2
Text: as §1, §2, §3

[3] = test system: Davis strain CMV; assay: Reduction of CMV-induced cytopathicity in HEL cells; type: cell-based, human cytomegalovirus (HCMV); conditions: HEL cells; for Antiviral EC50 (ug/ml) Davis strain CMV / EC50: virus-induced cytopathicity after seven days; for Antiviral % Inhibition Davis strain CMV: estimate of percent protection at the concentration in the previous column; for EC50: Human betaherpesvirus 5, 168 h, read-out: Antiviral EC50 (ug/ml) Davis strain CMV
Method: Confluent HEL cells grown in […] microtiter plates were inoculated with CMV at an input of 100 PFU (plaque forming units) per well. After a one to two hour incubation period, residual virus was removed and the infected cells were further incubated with MEM (Minimal Essential Medium) (supplemented with 2% inactivated Fetal Calf Serum (FCS), […], and 0.3% sodium bicarbonate) containing varying concentrations of the test compounds. Antiviral activity was expressed as EC50 (50% effective concentration), or test compound concentration required to reduce virus-induced cytopathicity after seven days by 50% compared to the untreated control.
In some cases, the compounds had considerable cytotoxicity against HEL cells, which made determination of the EC50 difficult. In these cases, an estimate of the percent protection at the compound concentration indicated in the previous columns is given.

Structure (SMILES) | EC50 (ug/ml) HIV-1 [1] | HIV-1 % Protection [1] [%] | EC50 (ug/ml) HIV-2 [2] | HIV-2 % Protection [2] [%] | Antiviral EC50 (ug/ml) Davis strain CMV [3] [µg/mL] | Antiviral % Inhibition Davis strain CMV [3] [%] | EC50 [1] [µg/mL] | EC50 [2] [µg/mL] | EC50 [3] [µg/mL]
COc1ccc(C(c2ccccc2)S(=O)(=O)c2cccc[n+]2[O-])cc1OC (centres unmarked) [Compound 61] | >4 µg/mL | 0.0 | >4.0 µg/mL | 6.0 | 14.0 |  |  |  | 
Cc1cc([N+](=O)[O-])ccc1CS(=O)(=O)c1c(C)ccc[n+]1[O-] [Compound 118] | >4 µg/mL |  | >4.0 µg/mL | 0.0 | >5 | 10.0 |  |  | 
Cc1ccccc1CS(=O)(=O)c1c(C)ccc[n+]1[O-] [Compound 82] | 9.30 µg/mL (≈ 33.5 µM) |  | ≧20 ug/ml | 37.5 | >5 | 0.0 |  |  | 
CCC(c1cc(C)ccc1C)S(=O)(=O)c1c(C)ccc[n+]1[O-] (centres unmarked) [Compound 79, 2-[[1-(2,5-dimethylphenyl)propyl]sulfonyl]-3-methylpyridine-1-oxide] |  |  |  | 37.5 |  |  | 1.4 (≈ 4.38 µM) | ≥ 20 | 0.8 (≈ 2.5 µM)
COc1ccc(C)cc1CSc1cccc[n+]1[O-] [Compound 93] | 8.00 µg/mL (≈ 30.6 µM) |  | ≧20 ug/ml | 37.5 | >50 | 0.0 |  |  | 
Cc1ccc(N)cc1C(C)S(=O)(=O)c1cccc[n+]1[O-] (centres unmarked) [Compound 1] | 20.00 µg/mL (≈ 68.4 µM) |  | 41.0 µg/mL (≈ 140 µM) |  | >50 | 0.0 |  |  | 
Cc1ccc(C)c(C(Cl)S(=O)(=O)c2cccc(C)[n+]2[O-])c1 (centres unmarked) [Compound 73] | 2.80 µg/mL (≈ 8.59 µM) |  | >100.0 µg/mL | 0.0 | >20 | 40.0 |  |  | 
Cc1cc(CS(=O)(=O)c2cccc[n+]2[O-])ccc1[N+](=O)[O-] [Compound 66] | 3.10 µg/mL (≈ 10.1 µM) |  | 2.5 µg/mL (≈ 8.11 µM) |  | 5.0 |  |  |  | 
CCOc1ccccc1CS(=O)(=O)c1cccc[n+]1[O-] [Compound 48] | 9.50 µg/mL (≈ 32.4 µM) |  | 16.0 µg/mL (≈ 54.5 µM) |  | >20 | 20.0 |  |  | 
CC(c1ccccc1)[S+]([O-])c1cccc[n+]1[O-] (centres unmarked) [Compound 102, 2-(1-Phenylethylsulfinyl)pyridine N-oxide] |  | 0.0 |  | 0.0 |  |  | > 0.8 | > 0.8 | 4.3 (≈ 17.4 µM)
O=S(=O)(Cc1ccc(Cl)cc1)c1cccc[n+]1[O-] [Compound 12] | 9.50 µg/mL (≈ 33.5 µM) |  | 9.5 µg/mL (≈ 33.5 µM) |  | 20.0 |  |  |  | 
N#Cc1ccc(CS(=O)(=O)c2cccc[n+]2[O-])cc1 [Compound 34] | 9.00 µg/mL (≈ 32.8 µM) |  | 10.0 µg/mL (≈ 36.5 µM) |  | >20 | 10.0 |  |  | 
CCc1ccc(CS(=O)(=O)c2cccc[n+]2[O-])cc1 [Compound 59] | 5.50 µg/mL (≈ 19.8 µM) |  | 5.0 µg/mL (≈ 18 µM) |  | 10.0 |  |  |  | 
O=S(=O)(Cc1ccccc1)c1ccccn1 [Compound 143] | 30.00 µg/mL (≈ 129 µM) |  | 50.0 µg/mL (≈ 214 µM) |  | >50 | 0.0 |  |  | 
O=[N+]([O-])c1ccc(CS(=O)(=O)c2cccc[n+]2[O-])cc1 [Compound 14] | >4 µg/mL | 0.0 | >4 µg/mL | 25.0 | 7.0 |  |  |  | 
O=S(=O)(Cc1ccccc1Cl)c1cccc[n+]1[O-] [Compound 15] | 6.00 µg/mL (≈ 21.1 µM) |  | 7.0 µg/mL (≈ 24.7 µM) |  | 5.0 |  |  |  | 
Cc1ccc[n+]([O-])c1S(=O)(=O)Cc1c(Cl)cccc1Cl [Compound 139] | >20 µg/mL | 0.0 | >20.00 µg/mL | 0.0 | 43.0 |  |  |  | 
O=S(=O)(Cc1cc2c(cc1Cl)OCO2)c1cccc[n+]1[O-] [Compound 21] | 11.70 µg/mL (≈ 35.7 µM) |  | 6.3 µg/mL (≈ 19.2 µM) |  | 10.0 |  |  |  | 
Cc1ccc[n+]([O-])c1[S+]([O-])Cc1c(Cl)cccc1Cl (centres unmarked) [Compound 138] | >100 µg/mL | 0.0 | >100.0 µg/mL | 0.0 | >50 | 20.0 |  |  | 
Cc1ccc(C)c(CS(=O)(=O)c2cccc[n+]2[O-])c1C [Compound 41] | 5.00 µg/mL (≈ 17.2 µM) |  | 4.7 µg/mL (≈ 16.1 µM) |  | 8.6 |  |  |  | 
CN1CCCCC1CSc1cccc[n+]1[O-] (racemic) [Compound 156] | 16.00 µg/mL (≈ 67.1 µM) |  | >100 µg/mL | 0.0 | >50 | 0.0 |  |  | 
O=[N+]([O-])c1cc(CS(=O)(=O)c2cccc[n+]2[O-])cc([N+](=O)[O-])c1 [Compound 65] | 2.80 µg/mL (≈ 8.25 µM) |  | 3.5 µg/mL (≈ 10.3 µM) |  | 5.0 |  |  |  | 
O=S(=O)(Cc1ccccc1F)c1cccc[n+]1[O-] [Compound 22] | 12.00 µg/mL (≈ 44.9 µM) |  | 6.3 µg/mL (≈ 23.6 µM) |  | 7.0 |  |  |  | 
[O-][n+]1cccc(Cl)c1SCc1ccccc1 [Compound 132] | 2.40 µg/mL (≈ 9.53 µM) |  | >20.00 µg/mL | 0.0 | >50 | 0.0 |  |  | 
Cc1ccc(C)c(CS(=O)(=O)c2cccc(Cl)[n+]2[O-])c1 [Compound 77] | 0.70 µg/mL (≈ 2.25 µM) |  | >0.8 µg/mL | 0.0 | 11.0 |  |  |  | 
CC(C)Cc1ccc(CS(=O)(=O)c2cccc[n+]2[O-])cc1 [Compound 55] | ≧4 ug/ml | 37.5 | 2.6 µg/mL (≈ 8.51 µM) |  | 3.2 |  |  |  | 
Cc1ccc(C)c(C(C)[S+]([O-])c2ccccn2)c1 (centres unmarked) [Compound 163] | 3.25 µg/mL (≈ 12.5 µM) |  | >100 µg/mL | 0.0 | >50 | 0.0 |  |  | 
